Measurements as given in patent publication US11419902B2, “Compositions comprising bacterial strains” (4D Pharma Research Limited, priority 2018, dated 2022).

Key:
SH-SY5Y cells = type: cell-based
Experimental: SH-SY5Y cells were plated at a seeding density of 10,000 cells/well, 24 hrs later cells were treated in 100 ul of 1% FBS growth media with different concentrations (express as percentage v/v) of cell-free bacterial supernatants from stationary phase cultures for 22 h. Thereafter 10 μl of MTT solution was added and cells were incubated in CO2 incubator for 4 h, at the end of this time 100 μl of isopropanol with 0.04 HCL was added to each well. The absorbance was measured at 560 nm wavelength and a reference wavelength of 655 nm. MTT assay kit was purchased from Merck Millipore (Cat n. CT01).

colon = experiment: Intestinal permeability assay (Ussing chambers); type: in vivo; conditions: colon of mice fed with MRx0029
Experimental: Animals were allowed to habituate to their holding room for one week after arrival into the animal unit. They receive oral gavage (200 μL dose) of live biotherapeutics at a dose of 1×10^9 CFU for 6 consecutive days between 15:00 and 17:00. On day 7, the animals are decapitated, and tissues are harvested for experimentation. Animals were sacrificed in a random fashion regarding treatment and testing condition; sampling occurred between 9.00 a.m. and 2:30 p.m. Trunk blood was collected in potassium EDTA (Ethylene Diamine Tetra Acetic Acid) tubes and spun for 15 min at 4000 g. Plasma was isolated and stored at −80° C. for further analysis. The brain was quickly excised, dissected and each brain region was snap-frozen on dry ice and stored at −80° C. for further analysis. Spleen was removed, collected in 5 mL RPMI media (with L-glutamine and sodium bicarbonate, R8758 Sigma+10% FBS (F7524, Sigma)+1% Pen/Strep (P4333, Sigma)) and processed immediately after culls for ex-vivo immune stimulation. Intestinal tissue (2 3 cm segments of ileum and colon closest to the caecum were excised, and the furthest 1 cm 2 cm of tissue from the caecum were used) were mounted into the Ussing chambers for intestinal permeability assay. The caecum was removed, weighted and stored at −80° C. for SCFAs analysis.

IL-8 = IL-8 secretion in U373 cells treated with SCFAs or supernatant fractions (ELISA); type: cell-based, Human; conditions: U373 cells, with or without 1 μg/ml LPS, 24 h
Experimental: Human glioblastoma astrocytoma cell line (U373), were maintained in 25 ml MEME 4.5 g/L D-glucose supplemented with 10% heat-inactivated FBS, 4 mM L-Glutamine, 100 U/ml penicillin, 100 μg/ml streptomycin and 5 μg/ml plasmocin, 1% Non-Essential Amino Acids, 1% Sodium Pyruvate (referred to as full growth media).
U373 cells were prepared as described above. Cells were pre-treated for 1 h with 1 μg/ml LPS indicated above and incubated at 37° C. and 5% CO2. After 1 h pre-incubation, cells were removed from CO2 incubator and treated with increasing concentration of fresh prepared Sodium Butyrate (SB), Sodium Valerate (SV) and Hexanoic Acid (HA).
U373 cells were prepared as described above. Cells were pre-treated for 1 h with 1 μg/ml LPS as indicated above. Afterwards, cells were removed from CO2 incubator and treated with 100 μl of the different fractions. Fractions from media were used as controls. Cell-free supernatants were collected 24 h after treatment and analysed by ELISA for IL-8 secretion (as outlined above).

Megasphaera massiliensis MRx0029 was tested, and the “reduction of cell viability” value (SH-SY5Y cells) was “approximately 70%”, the cell viability (SH-SY5Y cells; undifferentiated neuroblastoma cells, MRx0029 at 5% or 10%) was “significant, dose-dependent decrease in cell viability” and the “permeability function in the colon” value (colon) was “decrease the permeability function”. The “IL-8 secretion in the presence and absence of LPS” value (IL-8) was “induced IL-8 secretion”.
